Measured values reported in patent US20100056564A1, “Association of an anti-atherothrombotic agent and an anti-platelet-aggregation agent” (LES LABORATOIRES SERVIER, priority 2003, published 2010).

Tested on: collagen-induced platelet aggregation
Assay: Inhibition of collagen-induced platelet aggregation ex vivo
Format: in vivo, humans
Conditions: collagen 5 μg/ml; citrated platelet-rich plasma (PRPc), aggregometer; oral administration to 18 volunteers; compound A 10 mg, clopidogrel 75 mg
Description: Measurement of the Inhibition of Collagen-Induced Platelet Aggregation:
10 mg of compound A and 75 mg of clopidogrel were administered orally for three days to 18 volunteers previously treated with 75 mg of clopidogrel for 7 days. The effect of the association of compound A and clopidogrel was compared with the effects of compound A and clopidogrel administered separately.
In the course of the test, the percentage inhibition of platelet aggregation ex vivo induced by collagen (5 μg/ml) was calculated by measuring the platelet aggregation on citrated platelet-rich plasma (PRPc) with the aid of an aggregometer.

COC(=O)[C@H](c1ccccc1Cl)N1CCc2sccc2C1 [clopidogrel] was tested. Which “percentage inhibition of platelet aggregation ex vivo induced by collagen” value did it give?
The value was 11%.
